Data published in patent US8940730B2, “Methods and compositions of treating a Flaviviridae family viral infection” (The Board of Trustees of the Leland Stanford Junior …, priority 2007, dated 2015).

System: HCV RNA replication
Assay: Luciferase assay of HCV RNA replication (Table 3)
Conditions: Hepatitis C virus, read-out: Residual Luciferase activity

Row | Structure (SMILES) | activity at 5 µM | activity at 10 µM
1 | CN(C)CCCOc1nn(Cc2ccccc2)c2ccccc12 [Compound 184] | > 80% | 20 to 54%
2 | Brc1ccc(Cn2ncc3ccccc32)cc1 [Compound 186] | > 80% | > 80%
3 | Cc1ccc2c(c1)c(OCCN(C)C)nn2Cc1ccccc1 [Compound 197] | > 80% | 20 to 54%
4 | FC(F)(F)c1ccc2cn(Cc3ccc(Cl)cc3)nc2c1 [Compound 212] | 55 to 80% | 20 to 54%
5 | Cc1ccc2c(c1)c(OCCCN(C)C)nn2Cc1ccccc1 [Compound 187] | 55 to 80% | 20 to 54%
6 | Cc1ccc2c(c1)c(O)nn2Cc1ccccc1 [Compound 188] | > 80% | 20 to 54%
7 | Cc1ccc2c(c1)c(OCCN1CCCC1)nn2Cc1ccccc1 [Compound 196] | 55 to 80% | 20 to 54%
8 | Cc1cc2cn(Cc3ccc(Cl)cc3)nc2cc1Br [Compound 207] | > 80% | 55 to 80%
9 | O=[N+]([O-])c1cc2cnn(Cc3ccc(Cl)cc3)c2cc1Cl [Compound 203] | > 80% | 20 to 54%
10 | Cc1cc2c(cnn2Cc2ccc(Cl)cc2)cc1[N+](=O)[O-] [Compound 204] | 55 to 80% | 20 to 54%
11 | Clc1ccc(Cn2cc3cc(Br)ccc3n2)cc1 [Compound 211] | > 80% | 55 to 80%
12 | Cc1cc2nn(Cc3ccc(Cl)cc3)cc2cc1Cl [Compound 206] | > 80% | 55 to 80%
13 | Cc1cc2c(cnn2Cc2ccc(Cl)cc2)cc1Cl [Compound 200] | > 80% | 55 to 80%
14 | Cc1ccc2c(c1)c(OCCCN1CCCC1)nn2Cc1ccccc1 [Compound 193] | 20 to 54% | < 20%
15 | Cl.c1ccc(Cn2nc(OCCN3CCCC3)c3ccccc32)cc1 [Compound 194] | > 80% | 55 to 80%
16 | Clc1ccc(Cn2ncc3cc(Br)ccc32)cc1 [Compound 205] | > 80% | 55 to 80%
17 | c1ccc(Cn2nc(OCCCN3CCCCC3)c3ccccc32)cc1 [Compound 198] | 20 to 54% | < 20%
18 | Cl.c1ccc(Cn2nc(OCCN3CCCCC3)c3ccccc32)cc1 [Compound 190] | > 80% | 55 to 80%
19 | Cc1ccc2c(c1)c(OCCN1CCCCC1)nn2Cc1ccccc1.Cl [Compound 191] | 55 to 80% | < 20%
20 | Cc1cc2nn(Cc3ccc(Cl)cc3)cc2cc1[N+](=O)[O-] [Compound 210] | 20 to 54% | 20 to 54%
21 | Oc1nn(Cc2ccccc2)c2ccccc12 [Compound 189] | > 80% | > 80%
22 | Cc1cc2cnn(Cc3ccc(Cl)cc3)c2cc1Br [Compound 201] | > 80% | 55 to 80%
23 | O=[N+]([O-])c1cc2cn(Cc3ccc(Cl)cc3)nc2cc1Cl [Compound 209] | > 80% | > 80%
24 | Cc1cc2c(cnn2Cc2ccc(Cl)cc2)cc1Br [Compound 202] | > 80% | > 80%
25 | CN(C)CCOc1nn(Cc2ccccc2)c2ccccc12 [Compound 195] | > 80% | > 80%
26 | Cc1ccc2c(c1)c(OCCCN1CCCCC1)nn2Cc1ccccc1 [Compound 199] | 20 to 54% | < 20%
27 | c1ccc(Cn2ncc3ccccc32)cc1 [Compound 185] | > 80% | > 80%
28 | Cl.c1ccc(Cn2nc(OCCCN3CCCC3)c3ccccc32)cc1 [Compound 192] | 55 to 80% | 20 to 54%
29 | Cc1cc2nn(Cc3ccc(Cl)cc3)cc2cc1Br [Compound 208] | 55 to 80% | 20 to 54%
